Results as given in US20150126467A1, “USE OF ALGINATE OLIGOMERS TO ENHANCE THE EFFECTS OF ANTIFUNGAL AGENTS” (AlgiIPharma AS, priority 2011, published 2015).
Converted amounts (≈) assume the structure as drawn.

How the values were obtained:
Type in all cases: cell-based
[1] = tested on: Candida albicans, CCUG 39343; experiment: Robotic MIC assay (Example 1); conditions: for Minimum Inhibitory Concentration (MIC): 24 hours; for reduction in MIC values: comparing 0 and 10% G-block
Experimental: (§1) A robotic MIC Assay was performed as follows. OligoG CF-5/20 were dissolved in medium (Mueller-Hinton broth or M19 broth depending on experiment) to 1.25 times of the desired assay concentrations (2, 6 and 10%). The antifungal agents under test were dissolved in medium without OligoG CF-5/20 and in medium with OligoG CF-5/20 at a concentration of 1.25 times the highest desired assay concentrations. For experiments where the effect of adding different concentrations of Na^+ was investigated, NaCl was dissolved in medium to the desired concentrations (10, 30 and 50 mM).
(§2) Two-fold serial dilutions of antifungal agents were made in medium with different concentrations of OligoG CF-5/20, and the solutions were placed in four parallel wells in Nunc 384-well micro plates (30 μl per well in Nunc 242757 microplates). A group of 8 wells with no addition of antifungal agents for each OligoG CF-5/20 concentration was included on each microplate as growth reference. To each well in the 384-well assay plates was added 7.5 μl of medium inoculated with a frozen stock culture of Candida albicans (strain CCUG 39343).
The frozen stock culture was prepared by growing the Candida strain at 34° C. for 48 h on YM-agar. 1-3 colonies from the plates were grown in 6 ml YM-broth at 34° C. for 14 h before freezing in 6% glycerol at −80° C. Each batch of frozen stock culture was then characterized in separate growth experiments using Mueller-Hinton or M19 broth to determine the minimum amount of inoculum giving satisfactory growth after 48 h under the conditions relevant for the MIC assay. This inoculation procedure is used in order to reduce day to day variation in bioassays.
(§3) The micro plates were placed in plastic bags and incubated without shaking at 34° C. The optical density at 600 nm in the microwells was measured after approximately 13, 18, 24 and 34 hours of incubation, and the relative growth yield in each well was calculated based on the growth in the reference groups.

Candida albicans = experiment: Robotic MIC assay with asthma/COPD medicaments (Example 5); conditions: Mueller-Hinton broth; for MIC values: 24 hours
Experimental: as §1, §2, §3
The robotic assay described in Example 1 was employed in this Example. […] The concentration utilized for the different components were based on information from Manocha et al. (2006).
In this assay only Mueller-Hinton broth was used since this is the medium specified for standardized MIC assays (Jorgensen et al., 1999).

[2] = tested on: various Candida species and strains; experiment: Robotic MIC assay, summary over all strains (Example 2); conditions: all species and strains tested
Experimental: The robotic assay described in Example 1 was employed in this Example. Strains were grown in Mueller-Hinton broth (LAB114 from Lab M Limited) and MIC values (μg ml-1) were determined for each antifungal after incubation for 48 h in the presence of 0, 2, 6 and 10% OligoG CF-5/20 G-fragments. […] OligoG CF-5/20 G-fragments were provided by AlgiPharma AS, Norway.
Candida strains used were as follows: • C. albicans CCUG 39343 (strain from culture collection) • C. parapsillosis ATCC 22019T (strain from culture collection) • C. krusei 141/03 (candidosis) • C. krusei 249/03(2) (ulceration) • C. lusitaniae 994/01(2) (candidosis) • C. tropicalis 12 (vaginal) • C. tropicalis 75 (vaginal) • C. tropicalis 519468 (urinary) • C. tropicalis 544123 (urinary) • C. tropicalis 250/03 (candidosis) • C. tropicalis AG1 (oral) • C. tropicalis T2.2 (oral)

Q: How did the “Minimum Inhibitory Concentration (MIC)” value ([1]; M19, NaCl 0 mM) turn out when `C[C@@H]1[C@H](O)[C@@H](C)/C=C/C=C/CC/C=C/C=C/C=C/C=C/C(O[C@H]2O[C@H](C)[C@@H](O)[C@H](N)[C@@H]2O)CC2O[C@](O)(CC(O)C(O)CCC(O)CC(O)CC(O)CC(=O)O[C@H]1C)CC(O)C2C(=O)O` (stereo partly drawn) [Nystatin, nystatin] was run?
A: 6.4 µg/mL

Q: What about the “Minimum Inhibitory Concentration (MIC)” value ([1]; M19, NaCl 30 mM) of the same compound?
A: 3.2 µg/mL

Q: And the “Minimum Inhibitory Concentration (MIC)” value ([1]; M19, NaCl 50 mM)?
A: 1.6 µg/mL

Q: And the “Minimum Inhibitory Concentration (MIC)” value ([1]; M19, OligoG CF 5/20 0%)?
A: 6.4 µg/mL

Q: And the “Minimum Inhibitory Concentration (MIC)” value ([1]; M19, OligoG CF 5/20 2%)?
A: 1.6 µg/mL

Q: What about the “Minimum Inhibitory Concentration (MIC)” value ([1]; M19, OligoG CF 5/20 6%) of the same compound?
A: 0.8 µg/mL

Q: What about the “Minimum Inhibitory Concentration (MIC)” value ([1]; M19, OligoG CF 5/20 10%) of the same compound?
A: 0.4 µg/mL

Q: What about the “reduction in MIC values” ([1]; M19) of the same compound?
A: 16 ×

Q: And the “Minimum Inhibitory Concentration (MIC)” value ([1]; Mueller-Hinton, NaCl 0 mM)?
A: 6.4 µg/mL

Q: What about the “Minimum Inhibitory Concentration (MIC)” value ([1]; Mueller-Hinton, NaCl 10 mM) of the same compound?
A: 6.4 µg/mL

Q: What about the “Minimum Inhibitory Concentration (MIC)” value ([1]; Mueller-Hinton, NaCl 30 mM) of the same compound?
A: 6.4 µg/mL

Q: What about the “Minimum Inhibitory Concentration (MIC)” value ([1]; Mueller-Hinton, NaCl 50 mM) of the same compound?
A: 6.4 µg/mL

Q: What about the “Minimum Inhibitory Concentration (MIC)” value ([1]; Mueller-Hinton, OligoG CF 5/20 0%) of the same compound?
A: 3.2 µg/mL

Q: What about the “Minimum Inhibitory Concentration (MIC)” value ([1]; Mueller-Hinton, OligoG CF 5/20 2%) of the same compound?
A: 3.2 µg/mL

Q: And the “Minimum Inhibitory Concentration (MIC)” value ([1]; Mueller-Hinton, OligoG CF 5/20 6%)?
A: 0.8 µg/mL

Q: What about the “Minimum Inhibitory Concentration (MIC)” value ([1]; Mueller-Hinton, OligoG CF 5/20 10%) of the same compound?
A: 0.4 µg/mL

Q: What about the “reduction in MIC values” ([1]; Mueller-Hinton) of the same compound?
A: 8 ×

Q: And the “effect of addition of OligoG CF-5/20 on MIC values” ([1]; both media tested (M19, Mueller-Hinton))?
A: reduction in MIC values

Q: And the “reduction in MIC values” (Candida albicans; addition of 10% OligoG CF-5/20 compared to without OligoG CF-5/20)?
A: 4 ×

Q: And the MIC values (Candida albicans; no medicament added, G-block 0%)?
A: 2 µg/mL (≈ 2.16 µM)

Q: What about the MIC values (Candida albicans; no medicament added, G-block 2%) of the same compound?
A: 2 µg/mL (≈ 2.16 µM)

Q: What about the MIC values (Candida albicans; no medicament added, G-block 6%) of the same compound?
A: 1 µg/mL (≈ 1.08 µM)

Q: And the MIC values (Candida albicans; no medicament added, G-block 10%)?
A: 0.5 µg/mL (≈ 0.54 µM)

Q: What about the MIC values (Candida albicans; with Budesonide 0.01 mM, G-block 0%) of the same compound?
A: 4 µg/mL (≈ 4.32 µM)

Q: And the MIC values (Candida albicans; with Budesonide 0.01 mM, G-block 2%)?
A: 4 µg/mL (≈ 4.32 µM)

Q: What about the MIC values (Candida albicans; with Budesonide 0.01 mM, G-block 6%) of the same compound?
A: 2 µg/mL (≈ 2.16 µM)

Q: And the MIC values (Candida albicans; with Budesonide 0.01 mM, G-block 10%)?
A: 1 µg/mL (≈ 1.08 µM)

Q: And the MIC values (Candida albicans; with Formoterol 0.5 mM (2% DMSO), G-block 0%)?
A: 2 µg/mL (≈ 2.16 µM)

Q: And the MIC values (Candida albicans; with Formoterol 0.5 mM (2% DMSO), G-block 2%)?
A: 2 µg/mL (≈ 2.16 µM)

Q: And the MIC values (Candida albicans; with Formoterol 0.5 mM (2% DMSO), G-block 6%)?
A: 1 µg/mL (≈ 1.08 µM)

Q: What about the MIC values (Candida albicans; with Formoterol 0.5 mM (2% DMSO), G-block 10%) of the same compound?
A: 0.5 µg/mL (≈ 0.54 µM)

Q: What about the MIC values (Candida albicans; with Ipratropium bromide 0.01 mM, G-block 0%) of the same compound?
A: 4 µg/mL (≈ 4.32 µM)

Q: What about the MIC values (Candida albicans; with Ipratropium bromide 0.01 mM, G-block 2%) of the same compound?
A: 2 µg/mL (≈ 2.16 µM)

Q: What about the MIC values (Candida albicans; with Ipratropium bromide 0.01 mM, G-block 6%) of the same compound?
A: 1 µg/mL (≈ 1.08 µM)

Q: And the MIC values (Candida albicans; with Ipratropium bromide 0.01 mM, G-block 10%)?
A: 0.25 µg/mL (≈ 0.27 µM)

Q: And the MIC values (Candida albicans; with Ipratropium bromide 1 mM, G-block 0%)?
A: 4 µg/mL (≈ 4.32 µM)

Q: What about the MIC values (Candida albicans; with Ipratropium bromide 1 mM, G-block 2%) of the same compound?
A: 2 µg/mL (≈ 2.16 µM)

Q: What about the MIC values (Candida albicans; with Ipratropium bromide 1 mM, G-block 6%) of the same compound?
A: 0.5 µg/mL (≈ 0.54 µM)

Q: And the MIC values (Candida albicans; with Ipratropium bromide 1 mM, G-block 10%)?
A: 0.25 µg/mL (≈ 0.27 µM)

Q: What about the MIC values (Candida albicans; with Salbutamol 0.01 mM, G-block 0%) of the same compound?
A: 4 µg/mL (≈ 4.32 µM)

Q: What about the MIC values (Candida albicans; with Salbutamol 0.01 mM, G-block 2%) of the same compound?
A: 2 µg/mL (≈ 2.16 µM)

Q: And the MIC values (Candida albicans; with Salbutamol 0.01 mM, G-block 6%)?
A: 1 µg/mL (≈ 1.08 µM)

Q: What about the MIC values (Candida albicans; with Salbutamol 0.01 mM, G-block 10%) of the same compound?
A: 0.25 µg/mL (≈ 0.27 µM)

Q: And the MIC values (Candida albicans; with Salbutamol 1 mM, G-block 0%)?
A: 2 µg/mL (≈ 2.16 µM)

Q: What about the MIC values (Candida albicans; with Salbutamol 1 mM, G-block 2%) of the same compound?
A: 2 µg/mL (≈ 2.16 µM)

Q: What about the MIC values (Candida albicans; with Salbutamol 1 mM, G-block 6%) of the same compound?
A: 1 µg/mL (≈ 1.08 µM)

Q: And the MIC values (Candida albicans; with Salbutamol 1 mM, G-block 10%)?
A: 0.25 µg/mL (≈ 0.27 µM)

Q: What about the “effect of addition of OligoG CF-5/20 on MIC values” [2] of the same compound?
A: reduced
